Data reported in PMC8881573, “Inhibition of SRP-dependent protein secretion by the bacterial alarmone (p)ppGpp” (Nature Communications, 2022).

Assays:
(Ec)FtsY-NG [1] = target: T1, (Ec)FtsY-NG (Escherichia coli, UniProt P10121); test: Isothermal titration calorimetry (ITC) of nucleotide binding; design: species or system E. coli; conditions: NG domain, 25 °C, one set of sites model
T1 construct: purified NG domains of (Ec)Ffh, (Ec)FtsY and (Bs)Ffh; His6 (C); made in house; host or cells: E. coli BL21 (DE3)
T1 sequence (P10121 197-497): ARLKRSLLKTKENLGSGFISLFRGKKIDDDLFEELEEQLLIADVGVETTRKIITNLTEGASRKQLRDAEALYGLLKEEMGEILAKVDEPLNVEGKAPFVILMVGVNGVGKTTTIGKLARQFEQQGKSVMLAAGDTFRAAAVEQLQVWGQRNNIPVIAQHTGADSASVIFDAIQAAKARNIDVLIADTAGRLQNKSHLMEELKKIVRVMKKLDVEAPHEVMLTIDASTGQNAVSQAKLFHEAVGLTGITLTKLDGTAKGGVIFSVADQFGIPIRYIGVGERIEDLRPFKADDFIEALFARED
Description: (§1) Ligands and proteins (purified NG domains of (Ec)Ffh, (Ec)FtsY and (Bs)Ffh) were diluted with a buffer containing 20 mM HEPES-Na (pH 7.5), 200 mM NaCl, 20 mM MgCl2 and 20 mM KCl. The NG domains of (Ec)Ffh, (Ec)FtsY and (Bs)Ffh were titrated in the sample-cell at a nominal concentration of 25 µM each. The nucleotides GDP, GTP, ppGpp and pppGpp (Jena Bioscience, Germany) were placed in the syringe and their concentrations were predetermined by absorbance at 252 nm to saturate the protein samples during the titrations. All the measurements were performed at 25 °C with the instrument MicroCal PEAQ-ITC (©Malvern Panalytical) with a method consisting of 13 injections (first 0.4 µL, and the rest 3 µL each) and 150 s of spacing. The raw data (see source) were processed with the MicroCal PEAQ-ITC Analysis Software (©Malvern Panalytical) using the “one set of sites” models.

(Bs)Ffh-NG [2] = target: T2, (Bs)Ffh-NG (Bacillus subtilis, UniProt P37105); test: Microscale thermophoresis (MST) ligand binding; design: species or system B. subtilis; conditions: NG domain labeled with NT 647, 21 °C
T2 construct: purified NG domains of (Ec)Ffh, (Ec)FtsY and (Bs)Ffh; His6 (N); made in house; host or cells: E. coli Rosetta pLysS
T2 sequence (P37105 1-297 limits assumed): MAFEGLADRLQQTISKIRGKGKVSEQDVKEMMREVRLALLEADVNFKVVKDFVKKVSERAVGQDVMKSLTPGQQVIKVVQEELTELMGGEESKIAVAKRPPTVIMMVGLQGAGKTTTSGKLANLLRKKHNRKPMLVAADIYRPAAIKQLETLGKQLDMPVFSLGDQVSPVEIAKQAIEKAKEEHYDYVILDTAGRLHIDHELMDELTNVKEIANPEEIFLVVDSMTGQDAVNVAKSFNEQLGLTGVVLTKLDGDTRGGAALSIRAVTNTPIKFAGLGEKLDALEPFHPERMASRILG
Description: (§2) Ligand binding assays with purified NG domains of (Ec)Ffh, (Ec)FtsY and (Bs)Ffh proteins were carried out by microscale thermophoresis (MST)[80]. All experiments were performed on a Monolith NT.115 (NanoTemper Technologies GmbH, Munich, Germany; software: NanoTemper Control Version 2.0.2.29) at 21 °C (red LED power was set to 50–100% and infrared laser power to 75%). After labeling of primary amines within (Ec)Ffh, (Ec)FtsY, and (Bs)Ffh (50 µM each) with the dye NT 647 (according to the manufacturers protocol), the proteins were re-buffered in SEC buffer containing 20 mM HEPES-Na, 20 mM KCl, 20 mM MgCl2, 200 mM NaCl (final pH 7.5), 10 mg ml^−1 BSA and 0.007% Tween. Two-hundred nanomolar of (Ec)Ffh, (Ec)FtsY, and (Bs)Ffh were titrated with GDP, GTP, ppGpp, and pppGpp starting from a concentration ranging between 0.75 and 3 mM, respectively. At least six independent MST experiments per ligand and protein were recorded at 680 nm and analyzed using NanoTemper Analysis version 1.5.37 and 1.2.009, and Origin8G software suits.

(Bs)Ffh-NG [3] = target: T2, (Bs)Ffh-NG; test: Isothermal titration calorimetry (ITC) of nucleotide binding; design: species or system B. subtilis; conditions: NG domain, 25 °C, one set of sites model
Description: as §1

(Ec)FtsY-NG [4] = target: T1, (Ec)FtsY-NG; test: Microscale thermophoresis (MST) ligand binding; design: species or system E. coli; conditions: NG domain labeled with NT 647, 21 °C; read-out: (Ec)FtsY KD MST
Description: as §2

(Ec)Ffh-NG = target: T3, (Ec)Ffh-NG (Escherichia coli, UniProt P0AGD7); test: Microscale thermophoresis (MST) ligand binding; design: species or system E. coli; conditions: NG domain labeled with NT 647, 21 °C
T3 construct: purified NG domains of (Ec)Ffh, (Ec)FtsY and (Bs)Ffh; His6 (C); made in house; host or cells: E. coli BL21 (DE3)
T3 sequence (P0AGD7 1-296): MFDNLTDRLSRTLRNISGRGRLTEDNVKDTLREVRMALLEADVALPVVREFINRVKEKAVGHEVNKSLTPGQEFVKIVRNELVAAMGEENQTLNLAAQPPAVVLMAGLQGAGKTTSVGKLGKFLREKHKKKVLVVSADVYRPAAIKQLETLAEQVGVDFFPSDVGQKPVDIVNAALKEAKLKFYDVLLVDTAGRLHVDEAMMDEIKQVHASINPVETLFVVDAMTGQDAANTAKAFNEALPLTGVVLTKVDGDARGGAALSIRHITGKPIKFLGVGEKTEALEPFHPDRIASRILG
Description: as §2

Nc1nc2c(ncn2[C@@H]2O[C@H](COP(=O)(O)OP(=O)(O)O)[C@@H](OP(=O)(O)OP(=O)(O)O)[C@H]2O)c(=O)[nH]1 [ppGpp]
Kd ((Ec)FtsY-NG [1]): 21.7 ± 5.4 µM
Kd ((Bs)Ffh-NG [2]): 32.2 ± 7.5 µM
Kd ((Bs)Ffh-NG [3]): 4.8 ± 1.8 µM
Kd ((Ec)FtsY-NG [4]): 30 µM
Kd ((Ec)Ffh-NG): 13.5 µM

Nc1nc2c(ncn2[C@@H]2O[C@H](COP(=O)(O)OP(=O)(O)OP(=O)(O)O)[C@@H](OP(=O)(O)OP(=O)(O)O)[C@H]2O)c(=O)[nH]1 [pppGpp]
Kd ((Bs)Ffh-NG [2]): 27.2 ± 9.8 µM
Kd ((Ec)FtsY-NG [4]): 66.6 µM
Kd ((Ec)Ffh-NG): 68.3 µM
